# Ends that are not written are not given here.
# Experiments:
# [1] = molecular target: T1, CXCR5 (Mus musculus, UniProt Q04683); experiment: Dose-dependent chemokine receptor occupation assay; type: binding, 4T1 murine cells; conditions: 4T1 cells, 0.1 nM to 1 mM, 1 h
# T1 construct: endogenous in cells; host or cells: 4T1 murine breast cancer cells
# T1 sequence (Q04683 1-374): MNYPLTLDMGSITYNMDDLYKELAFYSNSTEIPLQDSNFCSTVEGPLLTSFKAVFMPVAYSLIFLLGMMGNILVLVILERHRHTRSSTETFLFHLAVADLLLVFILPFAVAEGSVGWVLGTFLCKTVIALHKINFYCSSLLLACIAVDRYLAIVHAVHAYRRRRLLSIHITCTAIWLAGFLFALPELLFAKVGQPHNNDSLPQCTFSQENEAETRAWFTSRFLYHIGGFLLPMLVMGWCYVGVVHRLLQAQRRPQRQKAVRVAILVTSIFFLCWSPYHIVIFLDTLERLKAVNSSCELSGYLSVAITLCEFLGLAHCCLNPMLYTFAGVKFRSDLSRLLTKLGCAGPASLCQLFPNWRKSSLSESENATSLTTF
# Protocol: (§1) To validate the specificity of the BS (CXCR4-binding sequence) to CXCR4, a dose-dependent chemokine receptors occupation assay and a chemokine receptors competitive binding assay were conducted. […] Unoccupied chemokine receptors (CXCR4, CXCR7, CXCR2, CXCR5, and CCR4) on cell surface were stained with PE anti-human CD184/CXCR4 Antibody (1:300 dilution), anti-CXCR7-PE (1:300 dilution), anti-CXCR2-PE (1:300 dilution), anti-CXCR5-PE (1:300 dilution), and PE anti-human CD194/CCR4 Antibody (1:300 dilution) at 4 °C for 1 h, prior to flow cytometry analysis. In the chemokine receptors competitive binding assay, 4T1 cells (5 × 10^5 cells) were pre-blocked with PE anti-human CD184/CXCR4 Antibody (1:300 dilution), anti-CXCR7-PE (1:300 dilution), anti-CXCR2-PE (1:300 dilution), anti-CXCR5-PE (1:300 dilution), and PE anti-human CD194/CCR4 Antibody (1:300 dilution) at 4 °C for 1 h. Subsequently, these cells were treated with P-Cy5-BS-CM1-Cy5 (5 nM Cy5 equivalence) for 1 h. Following the treatments, cells were washed three times with PBS and subjected to flow cytometry analysis.
# [2] = molecular target: T2, CXCR4 (Mus musculus, UniProt P70658); experiment: Dose-dependent chemokine receptor occupation assay; type: binding, 4T1 murine cells; conditions: 4T1 cells, 0.1 nM to 1 mM, 25 °C, 1 h; unoccupied receptor stained with PE antibody
# T2 construct: endogenous in cells; host or cells: 4T1 murine breast cancer cells
# T2 sequence (P70658 whole entry): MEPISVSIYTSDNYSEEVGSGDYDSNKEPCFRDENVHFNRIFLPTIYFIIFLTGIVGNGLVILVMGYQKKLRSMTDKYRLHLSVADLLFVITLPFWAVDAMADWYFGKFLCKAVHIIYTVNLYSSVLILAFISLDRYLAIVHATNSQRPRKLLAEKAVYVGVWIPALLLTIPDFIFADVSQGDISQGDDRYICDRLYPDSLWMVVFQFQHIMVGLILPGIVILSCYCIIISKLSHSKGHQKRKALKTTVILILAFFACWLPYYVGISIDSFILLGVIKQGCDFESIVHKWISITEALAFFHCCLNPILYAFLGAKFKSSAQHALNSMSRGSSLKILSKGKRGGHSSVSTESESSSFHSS
# Protocol: as §1
# [3] = molecular target: T3, CXCR2 (Mus musculus, UniProt P35343); experiment: Dose-dependent chemokine receptor occupation assay; type: binding, 4T1 murine cells; conditions: 4T1 cells, 0.1 nM to 1 mM, 1 h
# T3 construct: endogenous in cells; host or cells: 4T1 murine breast cancer cells
# T3 sequence (P35343 1-359): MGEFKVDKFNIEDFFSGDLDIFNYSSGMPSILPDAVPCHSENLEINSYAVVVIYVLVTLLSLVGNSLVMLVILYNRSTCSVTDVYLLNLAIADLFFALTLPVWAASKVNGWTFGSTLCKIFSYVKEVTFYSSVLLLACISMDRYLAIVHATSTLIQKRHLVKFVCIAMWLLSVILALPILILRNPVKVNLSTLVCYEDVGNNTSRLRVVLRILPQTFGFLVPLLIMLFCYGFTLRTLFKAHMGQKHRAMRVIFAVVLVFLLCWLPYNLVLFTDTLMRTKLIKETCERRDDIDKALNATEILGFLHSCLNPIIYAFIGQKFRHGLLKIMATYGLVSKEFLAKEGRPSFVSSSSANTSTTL
# Protocol: as §1
# [4] = test system: CXCL12 in lungs; experiment: Pulmonary CXCL12 ELISA; type: in vivo, female BALB/c mice
# Protocol: (§2) 4T1 cells (1 × 10^6 cells) were injected into the third mammary fat pad of female BALB/c mice (6–8-week). […] On day 28, blood samples, lungs and tumors were harvested.
# To explore the “seed-soil” crosstalk, the serum, intra-tumoral, and pulmonary concentration of LOX was determined using enzyme-linked immunosorbent assay kits (CSB-EL013041MO, CUSABIO, https://www.cusabio.com/) according to the manufacturer’s instructions. The serum, intra-tumoral, and pulmonary concentration of TGF-β was determined using mouse TGF-β ELISA Kit (Cat No.: HB1328-Mu). The formation of PMN was investigated through lung slices subjected to immunofluorescent staining of LOX, E-cadherin, and S100A8. For immunofluorescent staining of E-cadherin, Lung slices were stained with CoraLite® Plus 647 anti-mouse CD324 (E-cadherin, 1:300 dilution). For immunofluorescent staining of LOX and S100A8, Lung slices were separately stained with anti-LOX recombinant rabbit monoclonal antibody (1:500 dilution) or S100-A8 / MRP8 rabbit pAb (1:500 dilution), followed by staining with goat anti-rabbit IgG H&L Alexa Fluor® 647 (1:1000 dilution), respectively. Single-cell suspensions of lungs were analyzed using flow cytometry to assess BMDC (CD11b^+Gr1^+) with PE anti-mouse/human CD11b antibody (1:300 dilution) and FITC anti-mouse Ly-6G/Ly-6C (Gr-1) antibody (1:300 dilution). Chemokine concentrations in lungs were determined using a mouse CXCL12 ELISA kit.
# [5] = test system: HIF-1α in orthotopic 4T1 tumors; experiment: Intratumoral HIF-1α expression by flow cytometry; type: in vivo, female BALB/c mice
# Protocol: as §2
# For evaluating the hypoxic conditions in tumor tissues, immunofluorescent staining and flow cytometry analysis of HIF-1α were conducted. For immunofluorescent staining of HIF-1α, tumor slices were sequentially stained with anti-HIF-1 alpha recombinant rabbit monoclonal antibody (1:500 dilution) and goat anti-rabbit IgG H&L Alexa Fluor® 647 (1:1000 dilution). For flow cytometry analysis of HIF-1α, single-cell suspensions of tumor tissues were sequentially stained with anti-HIF1 alpha rabbit polyclonal antibody (1:500 dilution) and goat anti-rabbit IgG H&L Alexa Fluor® 647 (1:1000 dilution) before analysis.
# [6] = test system: orthotopic 4T1 breast tumors; experiment: Spontaneous lung metastasis model: tumor volume and pulmonary metastatic nodules; type: in vivo, female BALB/c mice; conditions: for Number of metastatic nodules: Fig. 5e, pulmonary
# Protocol: For the in vivo investigation of pulmonary metastasis, 4T1 cells (1 × 10^6 cells) were injected into the third mammary fat pad of female BALB/c mice (6–8 weeks). […] Tumor volumes were recorded every other day. On day 28, lungs were harvested and fixed with Bouin’s solutions. The pulmonary metastatic nodules were counted and analyzed by hematoxylin-eosin staining.
# [7] = ELISA, i.v. days 7, 14, 21, analysis day 28, mouse 1 of 5
# [8] = i.v. days 7, 14, 21 (5 mg/kg BS equivalence; P-CM2 24 h later), analysis day 28, mouse 1 of 5
Substance,CXCR5 occupation [1],CXCR4 occupation [2],CXCR2 occupation [3],"pulmonary CXCL12 (Fig. 6g) [4, 7]","pulmonary CXCL12 (Fig. 6g) ([4]; same, mouse 2 of 5)","pulmonary CXCL12 (Fig. 6g) ([4]; same, mouse 3 of 5)","pulmonary CXCL12 (Fig. 6g) ([4]; same, mouse 4 of 5)","pulmonary CXCL12 (Fig. 6g) ([4]; same, mouse 5 of 5)","intratumoral HIF-1α expression, flow cytometry (Fig. 6c) [5, 8]","intratumoral HIF-1α expression, flow cytometry (Fig. 6c) ([5]; same, mouse 2 of 5)","intratumoral HIF-1α expression, flow cytometry (Fig. 6c) ([5]; same, mouse 3 of 5)","intratumoral HIF-1α expression, flow cytometry (Fig. 6c) ([5]; same, mouse 4 of 5)","intratumoral HIF-1α expression, flow cytometry (Fig. 6c) ([5]; same, mouse 5 of 5)",Number of metastatic nodules ([6]; mouse 1),Number of metastatic nodules ([6]; mouse 2),Number of metastatic nodules ([6]; mouse 3),Number of metastatic nodules ([6]; mouse 4),Number of metastatic nodules ([6]; mouse 5),"lung metastatic nodule burden at endpoint ([6]; three weekly i.v. cycles, day 28)"
LGASWHRPDKCCLGYQKRPLPA [Free BS],did not occupy,comparable CXCR4 occupation to AMD3100,did not occupy,440,579,367,552,532,1107.6,915.453,924.512,898.316,847.852,31,28,25,36,27,high metastatic nodule burdens
"P-BS: HPMA copolymer-BS conjugate, ~6 BS grafts per polymer (LGASWHRPDKCCLGYQKRPLPA; not fully specified (residues 11, 12); also: about 6 peptides grafted on HPMA copolymer via cysteine-maleimide thioether links)",–,–,–,258,221,368,245,267,747.043,870.276,640.882,534.456,521.955,15,17,22,19,28,–

# Source: PMC10980815, “Cell surface patching via CXCR4-targeted nanothreads for cancer metastasis inhibition” (Nature Communications, 2024)
